Results taken from US20220064138A1, “MACROLIDE BREFELDIN A ESTER DERIVATIVES AND USE THEREOF” (OCEAN UNIVERSITY OF CHINA, priority 2019, published 2022).

Key:
Assay in all cases: Cell proliferation assay (CCK-8)
Type in all cases: cell-based
[1] = tested on: human liver cancer HepG2 cells; settings: HepG2, 72 h
Excerpt: (§1) CCK-8 method: The CCK-8 method is a highly sensitive, non-radioactive colorimetric assay for the determination of the number of viable cells in cell proliferation or cytotoxicity assays. The orange formazan dye produced by the bioreduction of CCK-8 by intracellular dehydrogenase is soluble in the cell culture medium, and the amount of formazan dye produced is proportional to the number of living cells. The kit used in this method is the tetrazolium salt-WST-8 (2-(2-methoxy-4-nitrophenyl)-3-(4-nitrophenyl)-5-(2,4-disulfophenyl)-2H-tetrazolium monosodium salt) developed by Dojindo Chemical Research Institute (Dojindo), which is capable of being reduced to a water-soluble formazan dye in the presence of the electronic carrier 1-Methoxy PMS.
(§2) Human cervical cancer Hela cells, pancreatic cancer PANC-1 cells, esophageal cancer Eca-109 cells, human leukemia K562 cells, human lung cancer A549 cells, human liver cancer HepG2 cells, human gastric cancer MKN-45 cells, human breast cancer MCF7 cells were cultured in DMEM medium containing 10% FBS (fetal bovine serum), 100 U/mL penicillin and 100 μg/ml streptomycin. Hepatocellular carcinoma cells Bel-7402 were cultured in RPMI-1640 medium containing 10% FBS (fetal bovine serum), 100 U/ml penicillin and 100 μg/ml streptomycin. All cells were placed in a cell culture incubator at 37° C. with 5% CO2. Cells fluid was changed every 3-5 days, and after 80% cell fusion, trypsin digestion and passaging were performed to keep the cells in good logarithmic growth phase.
(§3) All the samples to be tested were dissolved in DMSO.
(§4) Cells in logarithmic growth phase were inoculated in 96-well plates with 5000 cells/well respectively, and after 24 h of incubation, samples were added (final concentrations as shown in the table), and biplicate wells were set up for each sample. The amount of solvent of DMSO was not higher than 2‰. After 72 h, 10 μL of CCK-8 solution was added to each well and incubated for 1.5˜3 h at 37° C. The OD value at 450 nm was measured on an plate reader.
(§5) Inhibition rate (%)=(1−[(OD450 dosed well−OD450 blank well)/(OD450 control well−OD450 blank well)])×100%
(§6) The fitted IC50 values were calculated using the log (inhibitor) vs. response-Variable slop analysis method in GraphPad Prism software.

[2] = tested on: human leukemia K562 cells; settings: K562, 72 h
Excerpt: as §1, §2, §3, §4, §5, §6

[3] = tested on: human lung cancer A549 cells; settings: A549, 72 h
Excerpt: as §1, §2, §3, §4, §5, §6

[4] = tested on: human gastric cancer MKN-45 cells; settings: MKN-45, 72 h
Excerpt: as §1, §2, §3, §4, §5, §6

[5] = tested on: human breast cancer MCF7 cells; settings: MCF7, 72 h
Excerpt: as §1, §2, §3, §4, §5, §6

[6] = tested on: esophageal cancer Eca-109 cells; settings: Homo sapiens, Eca-109, 72 h
Excerpt: as §1, §2, §3, §4, §5, §6

[7] = tested on: pancreatic cancer PANC-1 cells; settings: Homo sapiens, PANC-1, 72 h
Excerpt: as §1, §2, §3, §4, §5, §6

[8] = tested on: Human cervical cancer Hela cells; settings: 72 h
Excerpt: as §1, §2, §3, §4, §5, §6

Row | Structure (SMILES) | IC50 [1] | IC50 [2] | IC50 [3] | IC50 [4] | IC50 [5] | IC50 [6] | IC50 [7] | IC50 [8]
1 | C[C@H]1CCC/C=C/[C@@H]2C[C@H](OC(=O)/C=C/c3ccccc3Br)C[C@H]2[C@H](OC(=O)/C=C/c2ccccc2Br)/C=C/C(=O)O1 [Compound 4c, 4,7-O-bis(2-bromocinnamic acid)acyl BFA] | 1000 to 10000 nM | 1000 to 10000 nM | 100 to 1000 nM | 100 to 1000 nM | 1000 to 10000 nM | 1000 to 10000 nM | 1000 to 10000 nM | 100 to 1000 nM
2 | Cc1cccc(/C=C/C(=O)O[C@@H]2C[C@H]3[C@H](O)/C=C/C(=O)O[C@@H](C)CCC/C=C/[C@@H]3C2)c1 [Compound 6a, 7-O-(3-methylcinnamic acid)acyl BFA] | 1000 to 10000 nM | 100 to 1000 nM | 100 to 1000 nM | 100 to 1000 nM | 100 to 1000 nM | 100 to 1000 nM | 100 to 1000 nM | 1000 to 10000 nM
3 | C[C@H]1CCC/C=C/[C@@H]2C[C@H](O)C[C@H]2[C@H](OC(=O)/C=C/c2ccccc2F)/C=C/C(=O)O1 [Compound 2b, 4-O-(2-fluorocinnamic acid)acyl BFA] | 100 to 1000 nM | 100 to 1000 nM | 100 to 1000 nM | 100 to 1000 nM | 100 to 1000 nM | 1000 to 10000 nM | 100 to 1000 nM | 1000 to 10000 nM
4 | Cc1ccc(/C=C/C(=O)O[C@@H]2C[C@H]3[C@H](O)/C=C/C(=O)O[C@@H](C)CCC/C=C/[C@@H]3C2)cc1 [Compound 7a, 7-O-(4-methylcinnamic acid)acyl BFA] | 1000 to 10000 nM | 1000 to 10000 nM | 100 to 1000 nM | 100 to 1000 nM | 1000 to 10000 nM | 1000 to 10000 nM | 100 to 1000 nM | 1000 to 10000 nM
5 | C[C@H]1CCC/C=C/[C@@H]2C[C@H](OC(=O)/C=C/c3ccc4c(c3)OCO4)C[C@H]2[C@H](O)/C=C/C(=O)O1 [Compound 9a, 7-O—((E)-3-(benzo[d][1,3]dioxa-5-yl)acrylic acid)acyl BFA] | 1000 to 10000 nM | 100 to 1000 nM | 100 to 1000 nM | 100 to 1000 nM | 100 to 1000 nM | 1000 to 10000 nM | 100 to 1000 nM | 1000 to 10000 nM
6 | Cc1cccc(/C=C/C(=O)O[C@@H]2C[C@@H]3[C@H](/C=C/CCC[C@H](C)OC(=O)/C=C/[C@H]3OC(=O)/C=C/c3cccc(C)c3)C2)c1 [Compound 6c, 4,7-O-bis(3-methylcinnamic acid)acyl BFA] | 1000 to 10000 nM | 1000 to 10000 nM | 1000 to 10000 nM | 100 to 1000 nM | 1000 to 10000 nM | 100 to 1000 nM | 1000 to 10000 nM | 1000 to 10000 nM
7 | C[C@H]1CCC/C=C/[C@@H]2C[C@H](OC(=O)/C=C/c3ccccc3F)C[C@H]2[C@H](OC(=O)/C=C/c2ccccc2F)/C=C/C(=O)O1 [Compound 2c, 4,7-O-bis(2-fluorocinnamic acid)acyl BFA] | 1000 to 10000 nM | 100 to 1000 nM | 1000 to 10000 nM | 100 to 1000 nM | 1000 to 10000 nM | 1000 to 10000 nM | 1000 to 10000 nM | 1000 to 10000 nM
8 | Cc1cccc(/C=C/C(=O)O[C@@H]2/C=C/C(=O)O[C@@H](C)CCC/C=C/[C@@H]3C[C@H](O)C[C@H]32)c1 [Compound 6b, 4-O-(3-methylcinnamic acid)acyl BFA] | 100 to 1000 nM | 100 to 1000 nM | 100 to 1000 nM | 100 to 1000 nM | 100 to 1000 nM | 100 to 1000 nM | 100 to 1000 nM | 100 to 1000 nM
9 | C[C@H]1CCC/C=C/[C@@H]2C[C@H](O)C[C@H]2[C@H](OC(=O)/C=C/c2cccc(Cl)c2)/C=C/C(=O)O1 [Compound 5b, 4-O-(3-chlorocinnamic acid)acyl BFA] | 100 to 1000 nM | 100 to 1000 nM | 100 to 1000 nM | 100 to 1000 nM | 100 to 1000 nM | 100 to 1000 nM | 100 to 1000 nM | 100 to 1000 nM
10 | COc1cc(/C=C/C(=O)O[C@@H]2/C=C/C(=O)O[C@@H](C)CCC/C=C/[C@@H]3C[C@H](O)C[C@H]32)cc(OC)c1OC [Compound 11b, 4-O-(3,4,5-trimethoxycinnamic acid)acyl BFA] | 100 to 1000 nM | 100 to 1000 nM | 100 to 1000 nM | 100 to 1000 nM | 100 to 1000 nM | 1000 to 10000 nM | 100 to 1000 nM | 1000 to 10000 nM
11 | Cc1ccc(/C=C/C(=O)O[C@@H]2C[C@@H]3[C@H](/C=C/CCC[C@H](C)OC(=O)/C=C/[C@H]3OC(=O)/C=C/c3ccc(C)cc3)C2)cc1 [Compound 7c, 4,7-O-bis(4-methylcinnamic acid)acyl BFA] | 1000 to 10000 nM | 1000 to 10000 nM | 1000 to 10000 nM | 100 to 1000 nM | 1000 to 10000 nM | 100 to 1000 nM | 1000 to 10000 nM | 1000 to 10000 nM
12 | C[C@H]1CCC/C=C/[C@@H]2C[C@H](OC(=O)/C=C/c3ccccc3Br)C[C@H]2[C@H](O)/C=C/C(=O)O1 [Compound 4a, 7-O-(2-bromocinnamic acid)acyl BFA] | 100 to 1000 nM | 100 to 1000 nM | 100 to 1000 nM | 100 to 1000 nM | 100 to 1000 nM | 100 to 1000 nM | 100 to 1000 nM | 100 to 1000 nM
13 | C[C@H]1CCC/C=C/[C@@H]2C[C@H](OC(=O)/C=C/c3ccncc3)C[C@H]2[C@H](OC(=O)/C=C/c2ccncc2)/C=C/C(=O)O1 [Compound 14c] | 100 to 1000 nM | 100 to 1000 nM | 100 to 1000 nM | 100 to 1000 nM | 1000 to 10000 nM | 1000 to 10000 nM | 1000 to 10000 nM | 1000 to 10000 nM
14 | C[C@H]1CCC/C=C/[C@@H]2C[C@H](O)C[C@H]2[C@H](OC(=O)/C=C/c2ccc(F)cc2)/C=C/C(=O)O1 [Compound 3b, 4-O-(4-fluorocinnamic acid)acyl BFA] | 100 to 1000 nM | 100 to 1000 nM | 100 to 1000 nM | 100 to 1000 nM | 100 to 1000 nM | 1000 to 10000 nM | 100 to 1000 nM | 100 to 1000 nM
15 | C[C@H]1CCC/C=C/[C@@H]2C[C@H](OC(=O)/C=C/c3ccc(F)cc3)C[C@H]2[C@H](OC(=O)/C=C/c2ccc(F)cc2)/C=C/C(=O)O1 [Compound 3c, 4,7-O-bis(4-fluorocinnamic acid)acyl BFA] | 1000 to 10000 nM | 1000 to 10000 nM | 100 to 1000 nM | 1000 to 10000 nM | 1000 to 10000 nM | 1000 to 10000 nM | 100 to 1000 nM | 1000 to 10000 nM
16 | C[C@H]1CCC/C=C/[C@@H]2C[C@H](OC(=O)/C=C/c3ccccn3)C[C@H]2[C@H](O)/C=C/C(=O)O1 [Compound 15a, 7-O-(3-(pyridine-2-yl)acrylic acid)acyl BFA] | < 100 nM | 100 to 1000 nM | 100 to 1000 nM | 100 to 1000 nM | 100 to 1000 nM | 1000 to 10000 nM | < 100 nM | 100 to 1000 nM
17 | C[C@H]1CCC/C=C/[C@@H]2C[C@H](O)C[C@H]2[C@H](OC(=O)/C=C/c2ccccc2Br)/C=C/C(=O)O1 [Compound 4b, 4-O-(2-bromocinnamic acid)acyl BFA] | 100 to 1000 nM | 100 to 1000 nM | 100 to 1000 nM | 100 to 1000 nM | 100 to 1000 nM | 100 to 1000 nM | 100 to 1000 nM | 100 to 1000 nM
18 | C[C@H]1CCC/C=C/[C@@H]2C[C@H](O)C[C@H]2[C@H](OC(=O)/C=C/c2ccc(C(F)(F)F)cc2)/C=C/C(=O)O1 [Compound 13b, 4-O-(4-trifluoromethylcinnamic acid)acyl BFA] | 100 to 1000 nM | 100 to 1000 nM | 100 to 1000 nM | 100 to 1000 nM | 100 to 1000 nM | 100 to 1000 nM | 100 to 1000 nM | 100 to 1000 nM
19 | C[C@H]1CCC/C=C/[C@@H]2C[C@H](O)C[C@H]2[C@H](OC(=O)/C=C/c2ccccn2)/C=C/C(=O)O1 [Compound 15b] | < 100 nM | 100 to 1000 nM | 100 to 1000 nM | 100 to 1000 nM | 100 to 1000 nM | 100 to 1000 nM | < 100 nM | 100 to 1000 nM
20 | Cc1ccccc1/C=C/C(=O)O[C@@H]1C[C@@H]2[C@H](/C=C/CCC[C@H](C)OC(=O)/C=C/[C@H]2OC(=O)/C=C/c2ccccc2C)C1 [Compound 8c, 4,7-O-bis(2-methylcinnamic acid)acyl BFA] | 1000 to 10000 nM | 1000 to 10000 nM | 1000 to 10000 nM | 100 to 1000 nM | 1000 to 10000 nM | 100 to 1000 nM | 1000 to 10000 nM | 1000 to 10000 nM
